Drawing on patent US20120202794A1 (priority 2011, published 2012), this text covers CC90 and EC90 for 34 compounds.

Series [1] can be described thus: Cell cytotoxicity assay (MTS), CC90 as reported in Table 1, cell line not stated. The format is cell-based. As to conditions: human; cell line not given. The essentials:
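Compounds, serially diluted from 100 μM, were incubated 8 days at 37° C with Huh7, HepG2 or BxPC3 (2×10^3 cells/well) or CEM (5×10^3 cells/well). Viability was read by MTS, 2 h, absorbance 490 nm. CC90 (90% inhibition) was taken against untreated cells.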

Another series has as its system HCV Replicon 1b. As to the kind of experiment: HCV inhibition assay, HCV replicon 1b (Clone A or ET-lunet cells; RT-PCR or luciferase reporter). It is filed as cell-based. To be noted: Hepatitis C virus, 96 h, HCV replicon 1b; 4 days incubation; read-out: Replicon 1b potency EC90. The gist of the method:
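Clone A (1500/well) or ET-lunet (3000/well) replicon cells treated with serially diluted compounds (0.5% DMSO, no G418) for 4 days at 37 °C. HCV RNA measured by one-step RT-PCR normalized to rRNA (ΔΔCt) or by luciferase luminescence versus DMSO controls; EC50/EC90 by curve fitting.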
On the technique in general: Replicon systems follow genome replication, usually without infectious particles.

Some results are limits rather than exact numbers.

By EC90 is commonly meant the concentration needed for an effect of 90%. Compound `CC(C)C[C@H]1CN(C(=O)c2cc(-c3ccc(Cl)cc3)no2)[C@@H](CC(C)C)C(=O)N1` [Compound 190] yielded a CC90 at 8 days in series [1] above 10 µM. Besides, the concentration for an effect of 90% (EC90) in the series on HCV Replicon 1b turned out to be 0.32 µM.

With `CC(C)C[C@H]1C(=O)N[C@@H](CC2CC2)CN1C(=O)c1cc(-c2ccc(F)cc2)no1` [Compound 191], the CC90 at 8 days in series [1] is above 10 µM. For the same compound, the EC90 in the series on HCV Replicon 1b came to 0.12 µM.

As for `CC(C)C[C@H]1C(=O)N[C@@H](C2CCCCC2)CN1C(=O)c1cc(-c2ccc(F)cc2)no1` [Compound 193], in series [1], the CC90 at 8 days was above 10 µM. The EC90 in the series with HCV Replicon 1b turned out to be 0.05 µM.

`CC(C)C[C@H]1C(=O)N[C@@H](C2CCCC2)CN1C(=O)c1cc(-c2ccc(F)cc2)no1` [Compound 194] yielded a CC90 at 8 days in series [1] above 10 µM. Moreover, the EC90 with HCV Replicon 1b came to 0.04 µM.

`CC(C)C[C@H]1CN(Cc2cc(-c3ccccc3)on2)[C@@H](CC(C)C)C(=O)N1` [Compound 195] yielded a CC90 at 8 days in series [1] above 10 µM. Besides, the EC90 in the series with HCV Replicon 1b stood at 0.75 µM.

For the compound `CC(C)C[C@H]1CN(Cc2cc(-c3ccc(F)cc3)on2)[C@@H](CC(C)C)C(=O)N1` [Compound 196], the CC90 at 8 days in series [1] is above 10 µM. The EC90 in the series on HCV Replicon 1b was 0.08 µM.

`CC(C)C[C@H]1CN(Cc2cc(-c3ccc(Cl)cc3)on2)[C@@H](CC(C)C)C(=O)N1` [Compound 197]: the CC90 at 8 days in series [1] was above 10 µM. Moreover, the EC90 with HCV Replicon 1b is 0.24 µM.

Turning to `CC(C)C[C@H]1CN(Cc2cc(-c3ccc(Br)cc3)on2)[C@@H](CC(C)C)C(=O)N1` [Compound 198], the CC90 at 8 days in series [1] is above 10 µM. For the same compound, in the series on HCV Replicon 1b, the EC90 came to 0.55 µM.

Regarding `Cc1ccc(-c2cc(CN3C[C@H](CC(C)C)NC(=O)[C@@H]3CC(C)C)no2)cc1` [Compound 199], the CC90 at 8 days in series [1] was above 10 µM. Also, in the series with HCV Replicon 1b, the EC90 is 2.15 µM.

For the compound `COc1ccc(-c2cc(CN3C[C@H](CC(C)C)NC(=O)[C@@H]3CC(C)C)no2)cc1` [Compound 200, (3S,6S)-3,6-Diisobutyl-4-((5-(4-methoxyphenyl)isoxazol-3-yl)methyl)piperazin-2-one], the CC90 at 8 days in series [1] is above 10 µM. The EC90 with HCV Replicon 1b came to 5.79 µM.

In the case of `CC(C)C[C@H]1CN(Cc2cc(-c3ccco3)on2)[C@@H](CC(C)C)C(=O)N1` [Compound 201, (3S,6S)-4-((5-(Furan-2-yl)isoxazol-3-yl)methyl)-3,6-diisobutylpiperazin-2-one], in series [1], the CC90 at 8 days is above 10 µM. The EC90 with HCV Replicon 1b stood at 1.82 µM.

With `CC(C)C[C@H]1CN(Cc2cc(-c3cccs3)on2)[C@@H](CC(C)C)C(=O)N1` [Compound 202, (3S,6S)-3,6-Diisobutyl-4-((5-(thiophen-2-yl)isoxazol-3-yl)methyl)piperazin-2-one], the CC90 at 8 days in series [1] was above 10 µM. In addition, in the series with HCV Replicon 1b, the EC90 stood at 0.88 µM.

`CC(C)C[C@H]1C(=O)N[C@@H](C(C)(C)C)CN1Cc1cc(-c2ccc(F)cc2)on1` [Compound 205, (3S,6S)-6-(tert-butyl)-4-((5-(4-fluorophenyl)isoxazol-3-yl)methyl)-3-isobutylpiperazin-2-one] gave a CC90 at 8 days in series [1] above 10 µM. In addition, the EC90 in the series on HCV Replicon 1b is 8.9 µM.

In series [1], `CCC[C@H]1CN(Cc2cc(-c3ccc(F)cc3)on2)[C@@H](CC(C)C)C(=O)N1` [Compound 206, (3S,6S)-4-((5-(4-fluorophenyl)isoxazol-3-yl)methyl)-3-isobutyl-6-propylpiperazin-2-one] showed a CC90 at 8 days above 10 µM. Further, in the series on HCV Replicon 1b, the EC90 was 0.21 µM.

As to `CC(C)C[C@H]1C(=O)N[C@@H](C2CCCCC2)CN1Cc1cc(-c2ccc(F)cc2)on1` [Compound 207, (3S,6S)-6-cyclohexyl-4-((5-(4-fluorophenyl)isoxazol-3-yl)methyl)-3-isobutylpiperazin-2-one], the CC90 at 8 days in series [1] is above 10 µM. The EC90 in the series on HCV Replicon 1b turned out to be 0.86 µM.

`CC(C)C[C@H]1C(=O)N[C@@H](C2CCCC2)CN1Cc1cc(-c2ccc(F)cc2)on1` [Compound 208, (3S,6S)-6-cyclopentyl-4-((5-(4-fluorophenyl)isoxazol-3-yl)methyl)-3-isobutylpiperazin-2-one] had a CC90 at 8 days in series [1] above 10 µM. In the series with HCV Replicon 1b, the EC90 was found to be 0.21 µM.

Regarding `CC(C)C[C@H]1C(=O)N[C@@H](CC2CC2)CN1Cc1cc(-c2ccc(Cl)cc2)on1` [Compound 209, (3S,6S)-4-((5-(4-chlorophenyl)isoxazol-3-yl)methyl)-6-(cyclopropylmethyl)-3-isobutylpiperazin-2-one], the CC90 at 8 days in series [1] is above 10 µM. The EC90 in the series with HCV Replicon 1b is 0.67 µM.

As to `CCC[C@H]1CN(Cc2cc(-c3ccc(Cl)cc3)on2)[C@@H](CC(C)C)C(=O)N1` [Compound 210, (3S,6S)-4-((5-(4-chlorophenyl)isoxazol-3-yl)methyl)-3-isobutyl-6-propylpiperazin-2-one], in series [1], the CC90 at 8 days was above 10 µM. The EC90 in the series with HCV Replicon 1b worked out at 0.32 µM.

For the compound `CC(C)C[C@H]1C(=O)N[C@@H](C2CCCCC2)CN1Cc1cc(-c2ccc(Cl)cc2)on1` [Compound 211, (3S,6S)-4-((5-(4-chlorophenyl)isoxazol-3-yl)methyl)-6-cyclohexyl-3-isobutylpiperazin-2-one], in series [1], the CC90 at 8 days is above 10 µM. Moreover, in the series on HCV Replicon 1b, the EC90 came out at 0.41 µM.

In the case of `CC(C)C[C@H]1C(=O)N[C@@H](C2CCCC2)CN1Cc1cc(-c2ccc(Cl)cc2)on1` [Compound 212, (3S,6S)-4-((5-(4-chlorophenyl)isoxazol-3-yl)methyl)-6-cyclopentyl-3-isobutylpiperazin-2-one], in series [1], the CC90 at 8 days was above 10 µM. The EC90 in the series on HCV Replicon 1b came out at 0.26 µM.

In turn, `CCC(C)[C@H]1CN(Cc2cc(-c3ccc(F)cc3)on2)[C@@H](CC(C)C)C(=O)N1` (some centres unmarked) [Compound 214] had a CC90 at 8 days in series [1] above 10 µM. Also, the EC90 with HCV Replicon 1b worked out at 0.72 µM.

With `CC(C)C[C@H]1C(=O)N[C@@H](c2ccccc2)CN1Cc1cc(-c2ccc(F)cc2)on1` [Compound 215, (3S,6S)-4-((5-(4-fluorophenyl)isoxazol-3-yl)methyl)-3-isobutyl-6-phenylpiperazin-2-one], the CC90 at 8 days in series [1] was above 10 µM. In addition, the EC90 with HCV Replicon 1b was 0.19 µM.

In turn, `CC(C)C[C@H]1C(=O)N[C@@H](C2CC2)CN1Cc1cc(-c2ccc(F)cc2)on1` [Compound 216, (3S,6S)-6-cyclopropyl-4-((5-(4-fluorophenyl)isoxazol-3-yl)methyl)-3-isobutylpiperazin-2-one] had a CC90 at 8 days in series [1] above 10 µM. Moreover, in the series with HCV Replicon 1b, the EC90 amounted to 1.6 µM.

Consider `CSC[C@H]1CN(Cc2cc(-c3ccc(F)cc3)on2)[C@@H](CC(C)C)C(=O)N1` [Compound 217, (3S,6R)-4-[5-(4-Fluoro-phenyl)-isoxazol-3-ylmethyl]-3-isobutyl-6-methylsulfanylmethyl-piperazin-2-one], for which the CC90 at 8 days in series [1] was above 10 µM. In addition, in the series on HCV Replicon 1b, the EC90 was 0.82 µM.

On to `CSC[C@H]1CN(Cc2cc(-c3ccc(Cl)cc3)on2)[C@@H](CC(C)C)C(=O)N1` [Compound 218, (3S,6R)-4-((5-(4-chlorophenyl)isoxazol-3-yl)methyl)-3-isobutyl-6-((methylthio)methyl)piperazin-2-one], for which the CC90 at 8 days in series [1] was above 10 µM. Moreover, the EC90 with HCV Replicon 1b turned out to be 0.75 µM.

On to `CC(C)C[C@H]1C(=O)N[C@@H](c2ccccc2)CN1Cc1cc(-c2ccc(Cl)cc2)on1` [Compound 219, (3S,6S)-4-((5-(4-chlorophenyl)isoxazol-3-yl)methyl)-3-isobutyl-6-phenylpiperazin-2-one], for which, in series [1], the CC90 at 8 days was above 10 µM. In the series with HCV Replicon 1b, the EC90 came out at 4.5 µM.

In the case of `CC(C)C[C@H]1CN(Cc2ccc(F)cc2C(F)(F)F)[C@@H](CC(C)C)C(=O)N1` [Compound 220, (3S,6S)-4-(4-fluoro-2-(trifluoromethyl)benzyl)-3,6-diisobutylpiperazin-2-one], in series [1], the CC90 at 8 days is above 10 µM. The EC90 in the series with HCV Replicon 1b turned out to be 8.35 µM.

With `CC(C)C[C@H]1CN(Cc2ccc(F)c(C(F)(F)F)c2)[C@@H](CC(C)C)C(=O)N1` [Compound 221, (3S,6S)-4-(4-fluoro-3-(trifluoromethyl)benzyl)-3,6-diisobutylpiperazin-2-one], the CC90 at 8 days in series [1] was above 10 µM. For the same compound, the EC90 with HCV Replicon 1b was above 10 µM.

`CC(C)C[C@H]1CN(Cc2cc(F)ccc2F)[C@@H](CC(C)C)C(=O)N1` [Compound 222, (3S,6S)-4-(2,5-difluorobenzyl)-3,6-diisobutylpiperazin-2-one] showed a CC90 at 8 days in series [1] above 10 µM. Moreover, the EC90 in the series with HCV Replicon 1b was 9.7 µM.

Compound `CC(C)C[C@H]1CN(Cc2cc(C(F)(F)F)cc(C(F)(F)F)c2)[C@@H](CC(C)C)C(=O)N1` [Compound 223, (3S,6S)-4-(3,5-Bis-trifluoromethyl-benzyl)-3,6-diisobutyl-piperazin-2-one] displayed a CC90 at 8 days in series [1] above 10 µM. Also, the EC90 with HCV Replicon 1b is 4.49 µM.

`CC(C)C[C@H]1CN(Cc2c(F)cccc2F)[C@@H](CC(C)C)C(=O)N1` [Compound 224, (3S,6S)-4-(2,6-Difluoro-benzyl)-3,6-diisobutyl-piperazin-2-one]: the CC90 at 8 days in series [1] was above 10 µM. Moreover, in the series with HCV Replicon 1b, the EC90 is 8.36 µM.

Regarding `CCc1ccc(CN2C[C@H](CC(C)C)NC(=O)[C@@H]2CC(C)C)cc1` [Compound 225, (3S,6S)-4-(4-Ethyl-benzyl)-3,6-diisobutyl-piperazin-2-one], in series [1], the CC90 at 8 days was above 10 µM. Further, the EC90 with HCV Replicon 1b was 3.51 µM.

`CC(C)C[C@H]1CN(Cc2ccc(Cl)c(Cl)c2)[C@@H](CC(C)C)C(=O)N1` [Compound 226, (3S,6S)-4-(3,4-Dichloro-benzyl)-3,6-diisobutyl-piperazin-2-one] showed a CC90 at 8 days in series [1] above 10 µM. For the same compound, the EC90 in the series with HCV Replicon 1b was determined as 8.87 µM.

`CC(C)C[C@H]1CN(Cc2ccc(F)c(Cl)c2)[C@@H](CC(C)C)C(=O)N1` [Compound 227, (3S,6S)-4-(3-Chloro-4-fluoro-benzyl)-3,6-diisobutyl-piperazin-2-one] displayed a CC90 at 8 days in series [1] above 10 µM. Also, the EC90 in the series with HCV Replicon 1b was above 10 µM.
